Where only a bound is given, the exact number is not on record here.

Assay [1] concerns cultured human mast cells (CHMC). Description: CHMC low cell density IgE activation: tryptase assay. It is filed as cell-based. The settings on record: low cell density; read-out: CHMC anti-IgE Tryptase. Put shortly:
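Low-density CHMC assay: donor-adjusted 1000-1500 cells/well, MT buffer, 1 hr 37° C preincubation; anti-IgE stimulus 30 min 37° C versus MT-only controls; supernatant tryptase by substrate, 30 min RT.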

Assay [2] has the same test system. Description: CHMC low cell density ionomycin activation: tryptase assay. The format is cell-based. To be noted: low cell density; read-out: CHMC Ionomycin Tryptase.
In another assay the target is T1, Syk kinase (Homo sapiens, UniProt P43405).
T1 construct: purchased Upstate, Lake Placid NY
As to the kind of experiment: Syk kinase biochemical fluorescence polarization assay. To be noted: isolated Syk kinase, fluorescence polarization, 4 uM ATP. On the technique in general: In fluorescence polarisation assays a small probe gives low polarisation when free and higher when bound to something large.

Assay [3] relates to Human Jurkat T-cells (clone N). Description: Jurkat T-cell activation (anti-TCR, CD69 upregulation). The format is cell-based. Put shortly: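 Jurkat cells in RPMI + 5% FBS preincubated with compound 1 h at 37 °C, then stimulated with anti-TCR C305 at 500 ng/ml for 20 h. CD69 surface expression stained with anti-CD69-APC and read by flow cytometry; IC50 versus solvent-only control.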

With `CNC(=O)C1Cc2cc(Nc3ncc(F)c(Nc4ccc5c(c4)NC(=O)C(F)(F)O5)n3)ccc2O1` (racemic) [Compound R927049], the IC50 was 110 nM in assay [1], greater than 10 µM in assay [2] and 0.004 µM at Syk kinase.
As to `COc1cc(Nc2ncc(F)c(Nc3ccc4c(n3)NC(=O)CO4)n2)cc(OC)c1` [Compound R945401], the values for the IC50 (in assay [2]; at Syk kinase) were greater than 10 µM and 0.007 µM, respectively.
As to `COc1cc(Nc2ncc(F)c(Nc3cccc(N)n3)n2)cc(OC)c1` [Compound R927077], the IC50 in assay [1] is 284 nM; in assay [2], 8.8 µM; at Syk kinase, 0.602 µM.
For the molecule `CC(=O)N1CCN(c2ccc(Nc3ncc(F)c(Nc4ccc5c(n4)NC(=O)CO5)n3)cc2)CC1` [Compound R945391], the IC50 in assay [1] is 94 nM; in assay [2], greater than 10 µM; against Syk kinase, 0.01 µM.
Taken in the same sequence, the figures for `CN(C)Cc1cc2cc(Nc3ncc(F)c(Nc4ccc5c(c4)NC(=O)C(F)(F)O5)n3)ccc2o1` [Compound R926979] were 109 nM, 23.5 µM and 0.013 µM.
As to `COc1ccc(Nc2nc(Nc3cc(C)c(O)c(Cl)c3)ncc2F)cc1Cl` [Compound R926968], the results for the IC50 (in assay [1]; in assay [3]; against Syk kinase) were 249 nM, 2020 nM and 0.235 µM, respectively.
Consider `Nc1cccc(Nc2nc(Nc3cccc(O)c3)ncc2F)n1` [Compound R927083], for which the IC50 in assay [1] came out at 316 nM; in assay [2], 19 µM; against Syk kinase, 0.449 µM.
As to `COc1c(Cl)cc(Nc2ncc(F)c(Nc3ccc4c(c3)NC(=O)C(F)(F)O4)n2)cc1Cl` [Compound R927061], the IC50 in assay [1] was 126 nM; in assay [2], 4.72 µM; against Syk kinase, 0.158 µM.
With `COc1cc(Nc2ncc(F)c(Nc3ccc4c(c3)NC(=O)C(F)(F)O4)n2)cc(OC)c1` [Compound R926970], the IC50 in assay [1] was 60 nM; in assay [2] it was greater than 10 µM; at Syk kinase, 0.057 µM.
In the case of `COc1ccc(Nc2ncc(F)c(Nc3cccc(N)n3)n2)cc1Cl` [Compound R927082], the IC50 is 256 nM in assay [1], greater than 10 µM in assay [2] and 0.312 µM on Syk kinase.
In the case of `COc1cc(Nc2ncc(F)c(Nc3ccc4c(c3)NC(=O)C(F)(F)O4)n2)cc(C(F)(F)F)c1` [Compound R926984], the IC50 in assay [1] is 167 nM; in assay [2], greater than 10 µM; on Syk kinase it was 0.459 µM.
Consider `CC1(C)Oc2ccc(Nc3nc(Nc4ccc(OC(F)(F)F)c(Cl)c4)ncc3F)nc2NC1=O` [Compound R940390], for which the values for the IC50 (in assay [1]; in assay [2]; against Syk kinase) were greater than 10000 nM, greater than 10 µM and greater than 10 µM, respectively.
Consider `CC1(C)Oc2ccc(Nc3nc(Nc4cc(Cl)c(O)c(Cl)c4)ncc3F)cc2NC1=O` [Compound R927051], for which the results for the IC50 (in assay [2]; against Syk kinase) were 12.6 µM and 0.01 µM, respectively.
Regarding `COc1ccc(Nc2ncc(F)c(Nc3ccc4c(c3)C(N)CCO4)n2)cc1Cl` (racemic) [Compound R950428], the values for the IC50 (in assay [1]; in assay [2]; on Syk kinase) were 123 nM, 21 µM and 0.127 µM, respectively.
Taken in the same sequence, the figures for `COC(=O)N1CCN(c2ccc(Nc3ncc(F)c(NC4CC4)n3)cc2)CC1` [Compound R945371] were 713 nM, greater than 10 µM and 1.3 µM.
Taken in the same sequence, the figures for `COc1cc(Nc2ncc(F)c(Nc3ccc(Cl)c(Cl)c3)n2)cc(OC)c1` [Compound R927060] were 222 nM, 5.17 µM and 0.62 µM.
With `CC1(C)Oc2ccc(Nc3ncc(F)c(Nc4ccc5c(c4)NC(=O)C(F)(F)O5)n3)cc2NC1=O` [Compound R940367], the IC50 in assay [1] is 117 nM; in assay [2] it was 14.1 µM; at Syk kinase, 0.013 µM.
Turning to `COc1ccc(Nc2ncc(F)c(Nc3ccc4c(n3)NC(=O)CO4)n2)cc1Cl` [Compound R945399], the IC50 is 163 nM in assay [1], greater than 10 µM in assay [2] and 0.166 µM on Syk kinase.
Taken in the same sequence, the figures for `C[C@@H]1Oc2ccc(Nc3ncc(F)c(Nc4ccc5c(c4)NC(=O)[C@H](C)O5)n3)cc2NC1=O` [Compound R908952] were 80 nM, 6.07 µM and 0.041 µM.
Taken in the same sequence, the figures for `CNC(=O)CCn1ncc2cc(Nc3ncc(F)c(Nc4ccc5c(c4)NC(=O)C(C)(C)O5)n3)ccc21` [Compound R935433] were 106 nM, 16.2 µM and 0.07 µM.
On to `CN(C)C(=O)C1Cc2cc(Nc3ncc(F)c(Nc4ccc5c(c4)NC(=O)C(F)(F)O5)n3)ccc2O1` (stereo not shown) [Compound R926983], for which the IC50 is 195 nM in assay [1], greater than 10 µM in assay [2] and 0.012 µM at Syk kinase.
As for `Fc1cnc(Nc2ccc3cc[nH]c3c2)nc1Nc1ccc(Cl)c(Cl)c1` [Compound R926975], the IC50 came to 421 nM in assay [1], 30.2 µM in assay [2] and 0.767 µM at Syk kinase.
Regarding `O=C1Nc2cc(Nc3nc(Nc4ccc5cc[nH]c5c4)ncc3F)ccc2OC1(F)F` [Compound R926977], the results for the IC50 (in assay [1]; in assay [2]; against Syk kinase) were 35.9 nM, greater than 10 µM and 0.007 µM, respectively.
`CC(=O)N1CCN(c2ccc(Nc3ncc(F)c(NC4CC4)n3)cc2)CC1` [Compound R945370]: the results for the IC50 (in assay [1]; in assay [2]; against Syk kinase) were 522 nM, greater than 10 µM and 1.05 µM, respectively.
Turning to `COc1ccc(Nc2ncc(F)c(Nc3ccc4c(c3)NC(=O)[C@H](C)O4)n2)cc1Cl` [Compound R909321], the results for the IC50 (in assay [1]; in assay [2]; against Syk kinase) were 163 nM, 30 µM and 0.104 µM, respectively.
Taken in the same sequence, the figures for `COC(=O)N1CCN(c2ccc(Nc3ncc(F)c(Nc4ccc5c(n4)NC(=O)CO5)n3)cc2)CC1` [Compound R945392] were 85 nM, greater than 10 µM and 0.014 µM.
Taken in the same sequence, the figures for `CC1(C)Oc2ccc(Nc3nc(Nc4ccc5c(cnn5CCCO)c4)ncc3F)cc2NC1=O` [Compound R935432] were 36 nM, 8.5 µM and 0.05 µM.
Take `O=C1COc2ccc(Nc3nc(Nc4cccc(OCC(=O)NC5CCC5)c4)ncc3F)nc2N1` [Compound R945389]: the results for the IC50 (in assay [1]; in assay [2]; on Syk kinase) were 74.8 nM, greater than 10 µM and 0.035 µM, respectively.
Taken in the same sequence, the figures for `O=C1Nc2cc(Nc3nc(Nc4cc(Cl)c(O)c(Cl)c4)ncc3F)ccc2OC1(F)F` [Compound R927048] were 50 nM, greater than 10 µM and 0.002 µM.
Taken in the same sequence, the figures for `CC(=O)N(C)c1ccc(Nc2ncc(F)c(Nc3ccc4c(n3)NC(=O)C(C)(C)O4)n2)cc1` [Compound R945417] were 2520 nM, greater than 10 µM and greater than 10 µM.
Taken in the same sequence, the figures for `O=C1Nc2cc(Nc3nc(Nc4cc(Cl)cc(Cl)c4)ncc3F)ccc2OC1(F)F` [Compound R926985] were 140 nM, 4.13 µM and 0.203 µM.
Turning to `CCN(C(C)=O)c1ccc(Nc2ncc(F)c(Nc3ccc4c(n3)NC(=O)C(C)(C)O4)n2)cc1` [Compound R945418], the IC50 (in assay [2]; against Syk kinase) was greater than 10 µM each time.
Consider `CC(=O)N1CCN(c2ccc(Nc3ncc(F)c(NC4CCC4)n3)cc2)CC1` [Compound R945385], for which the IC50 was 1100 nM in assay [1] and 2.12 µM against Syk kinase.
Taken in the same sequence, the figures for `Cc1cc(C)cc(Nc2ncc(F)c(Nc3ccc4c(n3)NC(=O)CO4)n2)c1` [Compound R945432] were 49 nM and 4440 µM.
Taken in the same sequence, the figures for `COC(=O)Cn1ncc2cc(Nc3ncc(F)c(Nc4ccc5c(c4)NC(=O)C(C)(C)O5)n3)ccc21` [Compound R935436] were 58 nM and 0.064 µM.
For `COc1c(C)cc(Nc2ncc(F)c(Nc3ccc4c(c3)-n3ccnc3CO4)n2)cc1Cl` [Compound R935418], the values for the IC50 (in assay [1]; in assay [2]; on Syk kinase) were 228 nM, greater than 10 µM and 0.558 µM, respectively.
`CN1CCN(c2ccc(Nc3ncc(F)c(Nc4ccc5c(n4)NC(=O)CO5)n3)cc2)CC1` [Compound R945426]: the IC50 in assay [1] was 256 nM; against Syk kinase it was 0.301 µM.
On to `Cn1ncc2ccc(Nc3ncc(F)c(Nc4ccc5c(c4)NC(=O)C(F)(F)O5)n3)cc21` [Compound R940368], for which the IC50 in assay [1] came out at 25 nM; in assay [2], 1.58 µM; at Syk kinase, 0.001 µM.
Taken in the same sequence, the figures for `CNC(=O)COc1cccc(Nc2ncc(F)c(Nc3cc(C)c(O)c(Cl)c3)n2)c1` [Compound R945366] were 112 nM, greater than 10 µM and 0.059 µM.
Taken in the same sequence, the figures for `O=C1COc2ccc(Nc3nc(Nc4cccc(OCC(=O)NC5CC5)c4)ncc3F)nc2N1` [Compound R945390] were 118 nM, greater than 10 µM and 0.009 µM.
Taken in the same sequence, the figures for `O=C1Nc2cc(Nc3nc(Nc4ccc5cn[nH]c5c4)ncc3F)ccc2OC1(F)F` [Compound R940364] were 46 nM, greater than 10 µM and 0.001 µM.
Take `COc1ccc(Nc2ncc(F)c(Nc3ccc4c(c3)NC(=O)C(F)(F)O4)n2)cc1Cl` [Compound R926981]: the IC50 in assay [1] is 137 nM; in assay [2], greater than 10 µM; at Syk kinase, 0.01 µM.
`CC(C)Oc1ccc(Nc2ncc(F)c(Nc3ccc4c(n3)NC(=O)CO4)n2)cc1` [Compound R945413]: the IC50 in assay [1] was 1700 nM; at Syk kinase, greater than 10 µM.
